Target: T1, SIRT1 (Homo sapiens, UniProt Q96EB6)
T1 sequence (Q96EB6 1-747): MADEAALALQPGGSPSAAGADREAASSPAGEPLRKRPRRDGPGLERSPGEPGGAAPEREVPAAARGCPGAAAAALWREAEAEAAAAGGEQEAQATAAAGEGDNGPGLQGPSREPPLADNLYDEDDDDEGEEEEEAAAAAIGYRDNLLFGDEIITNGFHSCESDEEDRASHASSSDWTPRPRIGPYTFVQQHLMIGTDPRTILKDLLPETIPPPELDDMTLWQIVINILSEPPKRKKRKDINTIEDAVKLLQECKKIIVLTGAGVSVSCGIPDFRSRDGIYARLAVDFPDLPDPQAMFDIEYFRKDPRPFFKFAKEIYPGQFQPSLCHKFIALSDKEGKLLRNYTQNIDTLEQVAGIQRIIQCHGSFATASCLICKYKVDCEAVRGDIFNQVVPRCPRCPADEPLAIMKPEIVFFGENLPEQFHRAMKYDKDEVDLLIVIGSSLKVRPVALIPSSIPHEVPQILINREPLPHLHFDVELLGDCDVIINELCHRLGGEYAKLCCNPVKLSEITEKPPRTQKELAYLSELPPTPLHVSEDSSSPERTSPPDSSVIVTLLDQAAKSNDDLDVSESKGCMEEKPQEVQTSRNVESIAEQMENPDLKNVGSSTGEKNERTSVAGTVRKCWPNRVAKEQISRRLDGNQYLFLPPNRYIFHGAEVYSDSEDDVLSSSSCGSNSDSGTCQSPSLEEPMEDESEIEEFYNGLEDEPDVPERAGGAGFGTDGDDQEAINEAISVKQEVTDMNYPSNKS
Test: Mass spectrometry based SIRT1 deacetylation assay (activation)
Format: biochemical
Settings: 10 nM SIRT1, 0.5 μM peptide substrate, 120 μM βNAD+, 25 min at 25° C.
Source text: A mass spectrometry based assay was used to identify modulators of SIRT1 activity. The mass spectrometry based assay utilizes a peptide having 20 amino acid residues as follows: Ac-EE-K (biotin)-GQSTSSHSK (Ac)N1eSTEG-K(5TMR)-EE-NH2 (SEQ ID NO: 1) wherein K(Ac) is an acetylated lysine residue and Nle is a norleucine. The peptide is labeled with the fluorophore 5TMR (excitation 540 nm/emission 580 nm) at the C-terminus. The sequence of the peptide substrate is based on p53 with several modifications. In addition, the methionine residue naturally present in the sequence was replaced with the norleucine because the methionine may be susceptible to oxidation during synthesis and purification.
The mass spectrometry assay is conducted as follows: 0.5 μM peptide substrate and 120 μM βNAD^+ is incubated with 10 nM SIRT1 for 25 minutes at 25° C. in a reaction buffer (50 mM Tris-acetate pH 8, 137 mM NaCl, 2.7 mM KCl, 1 mM MgCl2, 5 mM DTT, 0.05% BSA). Test compounds may be added to the reaction as described above. The SirT1 gene is cloned into a T7-promoter containing vector and transformed into BL21(DE3). After the 25 minute incubation with SIRT1, 10 μL of 10% formic acid is added to stop the reaction. Reactions are sealed and frozen for later mass spec analysis. Determination of the mass of the substrate peptide allows for precise determination of the degree of acetylation (i.e. starting material) as compared to deacetylated peptide (product).
A control for inhibition of sirtuin activity is conducted by adding 1 μL of 500 mM nicotinamide as a negative control at the start of the reaction (e.g., permits determination of maximum sirtuin inhibition). A control for activation of sirtuin activity is conducted using 10 nM of sirtuin protein, with 1 μL of DMSO in place of compound, to determine the amount of deacetylation of the substrate at a given timepoint within the linear range of the assay. This timepoint is the same as that used for test compounds and, within the linear range, the endpoint represents a change in velocity.
For the above assay, SIRT1 protein was expressed and purified as follows. The SirT1 gene was cloned into a T7-promoter containing vector and transformed into BL21(DE3). The protein was expressed by induction with 1 mM IPTG as an N-terminal His-tag fusion protein at 18° C. overnight and harvested at 30,000×g. Cells were lysed with lysozyme in lysis buffer (50 mM Tris-HCl, 2 mM Tris[2-carboxyethyl]phosphine (TCEP), 10 μM ZnCl2, 200 mM NaCl) and further treated with sonication for 10 min for complete lysis. The protein was purified over a Ni-NTA column (Amersham) and fractions containing pure protein were pooled, concentrated and run over a sizing column (Sephadex S200 26/60 global). The peak containing soluble protein was collected and run on an Ion-exchange column (MonoQ). Gradient elution (200 mM-500 mM NaCl) yielded pure protein. This protein was concentrated and dialyzed against dialysis buffer (20 mM Tris-HCl, 2 mM TCEP) overnight. The protein was aliquoted and frozen at −80° C. until further use.
Sirtuin modulating compounds that activated SIRT1 were identified using the assay described above and are shown below in Table 1. The EC1.5 values represent the concentration of test compounds that result in 150% activation of SIRT1. The EC1.5 values for the activating compounds are represented by A (EC1.5<1.0 uM), B (EC1.5 1-25 uM), C (EC1.5>25 uM). The percent maximum fold activation is represented by A (Fold activation >200%) or B (Fold Activation <200%). “NT” indicates the compound was not tested in a particular assay.

% Fold Act. (percent maximum fold activation) | EC1.5 (concentration of test compound that results in 150% activation of SIRT1) | Compound
A (Fold activation >200%) | A (EC1.5<1.0 uM) | O=C(Nc1nncs1)c1cccc2ccc(-c3cccc(C(F)(F)F)c3)nc12 [Compound 28]
B (Fold Activation <200%) | B (EC1.5 1-25 uM) | O=C(Nc1nccs1)c1cccc2cnc(-c3cccc(N4CCOCC4)c3)nc12 [Compound 299]
– | C (EC1.5>25 uM) | c1cncc(CNc2cccc3ccc(-c4cccc(N5CCCC5)c4)nc23)c1 [Compound 173]
A (Fold activation >200%) | B (EC1.5 1-25 uM) | O=C(Nc1cccc2ccc(-c3ccccc3OCCN3CCOCC3)nc12)c1cscn1 [Compound 175]
– | C (EC1.5>25 uM) | O=C(Nc1cccc2ccc(-c3cc(F)cc(C(F)(F)F)c3)nc12)c1cscn1 [Compound 169]
A (Fold activation >200%) | A (EC1.5<1.0 uM) | O=C(Nc1cccc(CN2CCOCC2)n1)c1cccc2ccc(-c3ccnc(C(F)F)c3)nc12 [Compound 306]
A (Fold activation >200%) | B (EC1.5 1-25 uM) | O=C(Nc1ncc(CN2CCCC2)s1)c1cccc2ccc(-c3cccnc3)nc12 [Compound 218]
– | C (EC1.5>25 uM) | O=C(Nc1cccc2ccc(-c3ccc(F)c(C(F)(F)F)c3)nc12)c1ccncc1 [Compound 161]
– | C (EC1.5>25 uM) | O=C(Nc1ccccn1)c1cccc2ncc(-c3cccc(OC(F)(F)F)c3)nc12 [Compound 127]
A (Fold activation >200%) | A (EC1.5<1.0 uM) | O=C(Nc1cccnc1)c1cccc2ccc(-c3cccc(N4CCOCC4)c3)nc12 [Compound 110]
A (Fold activation >200%) | B (EC1.5 1-25 uM) | Cn1cnc(C(=O)Nc2cccc3ccc(-c4cccnc4)nc23)c1 [Compound 294]
A (Fold activation >200%) | B (EC1.5 1-25 uM) | O=C(NCc1ccncc1)c1cccc2ccc(-c3cccc(O[C@@H]4CCNC4)c3)nc12 [Compound 103]
B (Fold Activation <200%) | A (EC1.5<1.0 uM) | O=C(Nc1cccc2ccc(-c3ccc4c(c3)OCO4)nc12)c1cscn1 [Compound 107]
B (Fold Activation <200%) | A (EC1.5<1.0 uM) | Cc1cnc(NC(=O)c2cccc3ccc(-c4cccc(C(F)(F)F)c4)nc23)s1 [Compound 42]
A (Fold activation >200%) | A (EC1.5<1.0 uM) | O=C(Nc1cccnn1)c1cccc2ccc(-c3cccc(N4CCOCC4)c3)nc12 [Compound 269]
– | C (EC1.5>25 uM) | O=C(Nc1ncnc2ccc(-c3cccc(OC(F)(F)F)c3)nc12)c1cccc(C(F)(F)F)c1 [Compound 211]

% Fold Act. (percent maximum fold activation) | EC1.5 (concentration of test compound that results in 150% activation of SIRT1) | Compound
A (Fold activation >200%) | B (EC1.5 1-25 uM) | O=C(Nc1ccncc1)c1cccc2ccc(-c3cccc(OC(F)(F)F)c3)nc12 [Compound 26]
– | C (EC1.5>25 uM) | FC(F)(F)c1cccc(-c2ccc3cccc(NCc4ccccn4)c3n2)c1 [Compound 136]
A (Fold activation >200%) | A (EC1.5<1.0 uM) | O=C(Nc1cccc2ccc(-c3ccccc3)nc12)c1cnccn1 [Compound 3]
A (Fold activation >200%) | B (EC1.5 1-25 uM) | O=C(Nc1ncnc2ccc(-c3cccc(C(F)(F)F)c3)nc12)c1cncs1 [Compound 300]
A (Fold activation >200%) | A (EC1.5<1.0 uM) | O=C(Nc1cccc(CN2CCCC2)n1)c1cccc2ccc(-c3cccc(C(F)(F)F)c3)nc12 [Compound 227]
A (Fold activation >200%) | A (EC1.5<1.0 uM) | O=C(Nc1cccc2ccc(-c3cccc(C(F)(F)F)c3)nc12)c1cccc(OC[C@@H](O)CO)c1 [Compound 187]
A (Fold activation >200%) | A (EC1.5<1.0 uM) | O=C(Nc1ccncn1)c1cccc2ccc(-c3cccc(OC4CCNCC4)c3)nc12 [Compound 133]
B (Fold Activation <200%) | A (EC1.5<1.0 uM) | O=C(Nc1cccc2ccc(-c3cccc(C(F)(F)F)c3)nc12)c1cnccn1 [Compound 4]
– | C (EC1.5>25 uM) | FC(F)(F)c1ccc(-c2ccc3cccc(NCc4cccnc4)c3n2)cc1 [Compound 171]
A (Fold activation >200%) | A (EC1.5<1.0 uM) | O=C(Nc1nc(CN2CCOCC2)cs1)c1cccc2ccc(-c3ccccc3C(F)(F)F)nc12 [Compound 274]
A (Fold activation >200%) | B (EC1.5 1-25 uM) | O=C(Nc1cccc2ccc(-c3ccc(O)cc3)nc12)c1cscn1 [Compound 186]
A (Fold activation >200%) | A (EC1.5<1.0 uM) | Cn1ccc(C(=O)Nc2cccc3ccc(-c4cccnc4)nc23)n1 [Compound 293]
– | C (EC1.5>25 uM) | FC(F)(F)c1cccc(-c2ccc3cccc(NCc4cccnc4)c3n2)c1 [Compound 135]
A (Fold activation >200%) | A (EC1.5<1.0 uM) | O=C(Nc1nccs1)c1cccc2ccc(-c3ccccc3)nc12 [Compound 12]
– | C (EC1.5>25 uM) | O=C(Nc1cccc2ccc(-c3cccc(OC(F)(F)F)c3)nc12)c1ccccc1F [Compound 20]
– | C (EC1.5>25 uM) | O=C(Nc1cccnc1)c1cccc2cnc(-c3cccc(C(F)(F)F)c3)nc12 [Compound 282]
